In ChEMBL document CHEMBL3045695, “2D and 3D QSAR analyses to predict favorable substitution sites in anilino-monoindolylmaleimides acting as PKCII selective inhibitors” (Med Chem Res, 2011):

Target: Protein kinase C beta type (Homo sapiens, UniProt P05771)
Assay: Inhibition of PKCbeta2 (unknown origin)

Sequence of Protein kinase C beta type (P05771 whole entry): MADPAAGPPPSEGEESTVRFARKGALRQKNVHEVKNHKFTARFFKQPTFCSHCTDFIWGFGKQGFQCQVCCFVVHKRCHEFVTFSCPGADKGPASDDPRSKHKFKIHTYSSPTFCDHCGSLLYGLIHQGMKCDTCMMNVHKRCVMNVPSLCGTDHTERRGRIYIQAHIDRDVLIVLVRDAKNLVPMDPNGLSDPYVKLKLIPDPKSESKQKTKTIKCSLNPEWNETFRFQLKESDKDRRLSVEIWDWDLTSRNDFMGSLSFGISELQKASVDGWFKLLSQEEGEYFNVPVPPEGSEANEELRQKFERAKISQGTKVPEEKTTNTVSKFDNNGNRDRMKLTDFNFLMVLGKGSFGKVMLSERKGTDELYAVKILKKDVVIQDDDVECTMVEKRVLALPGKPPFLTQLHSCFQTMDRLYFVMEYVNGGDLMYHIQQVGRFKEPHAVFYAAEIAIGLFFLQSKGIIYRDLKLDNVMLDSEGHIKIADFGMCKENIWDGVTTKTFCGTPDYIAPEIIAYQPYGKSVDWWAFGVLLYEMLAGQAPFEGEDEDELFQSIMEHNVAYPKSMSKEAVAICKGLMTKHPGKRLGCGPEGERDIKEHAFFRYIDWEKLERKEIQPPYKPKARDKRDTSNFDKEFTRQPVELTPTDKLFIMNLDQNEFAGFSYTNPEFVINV

Structure (SMILES)	IC50 (read-out: pIC50 (converted))	IC50 (read-out: IC50)
CN(C)CCCCCn1cc(C2=C(Nc3ccccc3)C(=O)NC2=O)c2ccccc21	41.7 nM	–
CCNC[C@H]1Cc2c(C3=C(Nc4ccccc4)C(=O)NC3=O)c3ccccc3n2C1	–	2.4 nM
O=C1NC(=O)C(c2c3n(c4ccccc24)C[C@H](CO)C3)=C1Nc1ccccc1	–	14 nM
CN(C)C[C@@H]1Cc2c(C3=C(Nc4ccccc4)C(=O)NC3=O)c3ccccc3n2C1	–	8 nM
CN(C)C[C@@H]1CCc2c(C3=C(Nc4ccccc4)C(=O)NC3=O)c3ccccc3n2C1	–	6 nM
CCN(CC)C[C@H]1Cc2c(C3=C(Nc4ccccc4)C(=O)NC3=O)c3ccccc3n2C1	–	32 nM
CCN(C)C[C@H]1Cc2c(C3=C(Nc4ccccc4)C(=O)NC3=O)c3ccccc3n2C1	–	5 nM
CNC[C@H]1Cc2c(C3=C(Nc4ccccc4)C(=O)NC3=O)c3ccccc3n2C1	–	2.2 nM
Cc1ccccc1NC1=C(c2c[nH]c3ccccc23)C(=O)NC1=O	2190 nM	–

Other lines, results leading:

IC50 (read-out: pIC50 (converted))	IC50 (read-out: IC50)	Structure (SMILES)
23.4 nM	–	CN1CCN(CCCn2cc(C3=C(Nc4ccccc4)C(=O)NC3=O)c3ccccc32)CC1
759 nM	–	COc1cccc(NC2=C(c3c[nH]c4ccccc34)C(=O)NC2=O)c1
490 nM	–	Cc1ccc(NC2=C(c3c[nH]c4ccccc34)C(=O)NC2=O)cc1
17.4 nM	–	O=C1NC(=O)C(c2cn(CCCN3CCCCC3)c3ccccc23)=C1Nc1ccccc1
–	1.4 nM	NC[C@H]1Cc2c(C3=C(Nc4ccccc4)C(=O)NC3=O)c3ccccc3n2C1
–	7.9 nM	CC(=O)NC[C@H]1Cc2c(C3=C(Nc4ccccc4)C(=O)NC3=O)c3ccccc3n2C1
–	6 nM	O=C1NC(=O)C(c2c3n(c4ccccc24)CC[C@H](CO)C3)=C1Nc1ccccc1
–	2 nM	CN(C)C[C@H]1CCn2c(c(C3=C(Nc4ccccc4)C(=O)NC3=O)c3ccccc32)C1
–	17 nM	O=C1NC(=O)C(c2c3n(c4ccccc24)CC[C@@H](CO)C3)=C1Nc1ccccc1
–	25 nM	CN(C)C[C@@H]1CCn2c(c(C3=C(Nc4ccccc4)C(=O)NC3=O)c3ccccc32)C1
1480 nM	–	O=C1NC(=O)C(c2c[nH]c3ccccc23)=C1Nc1cccc(C(F)(F)F)c1
2.04 nM	–	N=C(N)SCCCn1cc(C2=C(Nc3ccccc3)C(=O)NC2=O)c2ccccc21
